Test results taken from ChEMBL document CHEMBL5550122, “Photodynamic anticancer activity evaluation of novel 5-aminolevulinic acid and 3-hydroxypyridinone conjugates” (Bioorg Med Chem, 2024).
Active and inactive are the calls of the source. The calls are words filed in the database; no cut-off is given here.

Columns and labels:
[1] = Prodrug release in human A-375 cells assessed as 3-[(1Z,4Z,9Z,15Z)-7-(2-carboxyethyl)-3,8,12,17-tetramethyl-13,18-divinyl-21,23-dihydroporphyrin-2-yl]propanoic acid release by measuring increase in fluorescence intensity at 20 to 80 uM by microplate reader analysis; type: ADME, cell-based; details: a-375, 80 µM, dose 20-80 µM
A-375 [2] = experiment: Cytotoxicity against human A-375 cells assessed as reduction in cell viability preincubated for 4 hrs under dark condition followed by irradiation with blue light at 2.5 J.cm^-2 energy level for 5 mins and measured after 18 hrs by MTT assay; type: functional, cell-based; details: A-375, light or radiation study
HeLa [3] = experiment: Cytotoxicity against human HeLa cells assessed as reduction in cell viability preincubated for 4 hrs under dark condition followed by irradiation with blue light at 2.5 J.cm^-2 energy level for 5 mins and measured after 18 hrs by MTT assay; type: functional, cell-based; details: light or radiation study
MCF7 [4] = experiment: Cytotoxicity against human MCF7 cells assessed as reduction in cell viability preincubated for 4 hrs under dark condition followed by irradiation with blue light at 2.5 J.cm^-2 energy level for 5 mins and measured after 18 hrs by MTT assay; type: functional, cell-based; details: MCF7, light or radiation study
HeLa [5] = experiment: Cytotoxicity against human HeLa cells assessed as reduction in cell viability at 100 uM incubated for 4 hrs under dark condition by MTT assay; type: functional, cell-based
[6] = Drug metabolism assessed as esterase (unknown origin) mediated hydrolysis by measuring 5-Aminolevulinic acid formation; type: ADME; details: human
[7] = Prodrug release in human Hela cells assessed as 3-[(1Z,4Z,9Z,15Z)-7-(2-carboxyethyl)-3,8,12,17-tetramethyl-13,18-divinyl-21,23-dihydroporphyrin-2-yl]propanoic acid release by measuring increase in fluorescence intensity at 20 to 80 uM by microplate reader analysis; type: ADME, cell-based; details: dose 20-80 µM
[8] = Drug metabolism assessed as esterase (unknown origin) mediated hydrolysis by measuring hydroxypyridinone formation; type: ADME; details: human
[9] = Prodrug release in human MCF7 cells assessed as 3-[(1Z,4Z,9Z,15Z)-7-(2-carboxyethyl)-3,8,12,17-tetramethyl-13,18-divinyl-21,23-dihydroporphyrin-2-yl]propanoic acid release by measuring increase in fluorescence intensity at 20 to 80 uM by microplate reader analysis; type: ADME, cell-based; details: mcf7, 80 µM, dose 20-80 µM
HeLa [10] = experiment: Cytotoxicity against human HeLa cells assessed as reduction in cell viability at 100 to 400 uM preincubated for 4 hrs under dark condition followed by irradiation with blue light at 5 J.cm^-2 energy level and measured after 18 hrs by MTT assay; type: functional, cell-based; details: dose 100-400 µM, time 22.0 hrs
A-375 [11] = experiment: Cytotoxicity against human A-375 cells assessed as reduction in cell viability at 100 to 400 uM preincubated for 4 hrs under dark condition followed by irradiation with blue light at 5 J.cm^-2 energy level and measured after 18 hrs by MTT assay; type: functional, cell-based; details: dose 100-400 µM, time 22.0 hrs
MCF7 [12] = experiment: Cytotoxicity against human MCF7 cells assessed as reduction in cell viability at 100 to 400 uM incubated for 4 hrs under dark condition by MTT assay; type: functional, cell-based; details: dose 100-400 µM
A-375 [13] = experiment: Cytotoxicity against human A-375 cells assessed as reduction in cell viability at 100 to 400 uM incubated for 4 hrs under dark condition by MTT assay; type: functional, cell-based; details: dose 100-400 µM
HeLa [14] = experiment: Cytotoxicity against human HeLa cells assessed as reduction in cell viability at 100 to 400 uM incubated for 4 hrs under dark condition by MTT assay; type: functional, cell-based; details: dose 100-400 µM
MCF7 [15] = experiment: Cytotoxicity against human MCF7 cells assessed as reduction in cell viability at 100 to 400 uM preincubated for 4 hrs under dark condition followed by irradiation with blue light at 5 J.cm^-2 energy level and measured after 18 hrs by MTT assay; type: functional, cell-based; details: dose 100-400 µM, time 22.0 hrs
A-375 [16] = experiment: Cytotoxicity against human A-375 cells assessed as reduction in cell viability preincubated for 4 hrs under dark condition in presence of deferiprone followed by irradiation with blue light at 2.5 J.cm^-2 energy level for 5 mins and measured after 18 hrs by MTT assay; type: functional, cell-based; details: A-375, light or radiation study
HeLa [17] = experiment: Cytotoxicity against human HeLa cells assessed as reduction in cell viability preincubated for 4 hrs under dark condition in presence of deferiprone followed by irradiation with blue light at 2.5 J.cm^-2 energy level for 5 mins and measured after 18 hrs by MTT assay; type: functional, cell-based; details: light or radiation study
MCF7 [18] = experiment: Cytotoxicity against human MCF7 cells assessed as reduction in cell viability preincubated for 4 hrs under dark condition in presence of deferiprone followed by irradiation with blue light at 2.5 J.cm^-2 energy level for 5 mins and measured after 18 hrs by MTT assay; type: functional, cell-based; details: MCF7, light or radiation study
MCF7 [19] = experiment: Cytotoxicity against human MCF7 cells assessed as reduction in cell viability at 100 uM incubated for 4 hrs under dark condition by MTT assay; type: functional, cell-based
A-375 [20] = experiment: Cytotoxicity against human A-375 cells assessed as reduction in cell viability at 100 uM incubated for 4 hrs under dark condition by MTT assay; type: functional, cell-based

Drug metabolism [1]	Drug metabolism [6]	Drug metabolism [7]	Drug metabolism [8]	Drug metabolism [9]	SMILES	IC50 (A-375 [2])	IC50 (HeLa [3])	IC50 (MCF7 [4])	Activity (HeLa [5])	Activity (HeLa [10])	Activity (A-375 [11])	Activity (MCF7 [12])	Activity (A-375 [13])	Activity (HeLa [14])	Activity (MCF7 [15])	IC50 (A-375 [16])	IC50 (HeLa [17])	IC50 (MCF7 [18])	Activity (MCF7 [19])	Activity (A-375 [20])
Metabolite_Detected	Metabolite_Detected	Metabolite_Detected	Metabolite_Detected	Metabolite_Detected	CCCCCCCCn1c(C)cc(=O)c(O)c1COC(=O)CCC(=O)CN.Cl	38.5 µM	44.2 µM	48.9 µM	Active	–	–	–	–	–	–	–	–	–	–	–
–	–	–	–	–	COC(=O)CCC(=O)CNC(=O)[C@H](CC(C)C)NC(=O)Cn1cc(O)c(=O)cc1C	–	–	–	–	inactive	inactive	inactive	inactive	inactive	inactive	–	–	–	–	–
–	–	–	–	–	COC(=O)CCC(=O)CNC(=O)CCCn1cc(O)c(=O)cc1C	–	–	–	–	inactive	inactive	inactive	inactive	inactive	inactive	–	–	–	–	–
–	–	–	–	–	COC(=O)CCC(=O)CNC(=O)CCCCCn1cc(O)c(=O)cc1C	–	–	–	–	inactive	inactive	inactive	inactive	inactive	inactive	–	–	–	–	–
–	–	–	–	–	NCC(=O)CCC(=O)O [AMINOLEVULINIC ACID]	> 100 µM	> 100 µM	> 100 µM	–	–	–	–	–	–	–	27.2 µM	61.8 µM	65 µM	–	–
–	–	–	–	–	COC(=O)CCC(=O)CNC(=O)[C@H](CC(C)C)NC(=O)Cn1ccc(=O)c(O)c1C	–	–	–	–	inactive	inactive	inactive	inactive	inactive	inactive	–	–	–	–	–
–	–	–	–	–	COC(=O)CCC(=O)CNC(=O)CCCn1cc(O)c(=O)cc1CO	–	–	–	–	inactive	inactive	inactive	inactive	inactive	inactive	–	–	–	–	–
–	–	–	–	–	COC(=O)CCC(=O)CNC(=O)CCn1cc(O)c(=O)cc1CO	–	–	–	–	inactive	inactive	inactive	inactive	inactive	inactive	–	–	–	–	–
Metabolite_Detected	Metabolite_Detected	Metabolite_Detected	Metabolite_Detected	Metabolite_Detected	CCCCn1c(C)cc(=O)c(O)c1COC(=O)CCC(=O)CN.Cl	41.7 µM	68.8 µM	38 µM	inactive	–	–	–	–	–	–	–	–	–	inactive	inactive
–	–	–	–	–	COC(=O)CCC(=O)CNC(=O)CCCCn1cc(O)c(=O)cc1CO	–	–	–	–	inactive	inactive	inactive	inactive	inactive	inactive	–	–	–	–	–
Metabolite_Detected	Metabolite_Detected	Metabolite_Detected	Metabolite_Detected	Metabolite_Detected	CCCCCn1c(C)cc(=O)c(O)c1COC(=O)CCC(=O)CN.Cl	46.4 µM	47.5 µM	45.8 µM	inactive	–	–	–	–	–	–	–	–	–	inactive	inactive
–	–	–	–	–	COC(=O)CCC(=O)CNC(=O)CCCCCn1cc(O)c(=O)cc1CO	–	–	–	–	inactive	inactive	inactive	inactive	inactive	inactive	–	–	–	–	–
–	–	–	–	–	COC(=O)CCC(=O)CNC(=O)[C@H](Cc1ccccc1)NC(=O)Cn1ccc(=O)c(O)c1C	–	–	–	–	inactive	inactive	inactive	inactive	inactive	inactive	–	–	–	–	–
–	–	–	–	–	COC(=O)CCC(=O)CNC(=O)[C@H](Cc1ccccc1)NC(=O)Cn1cc(O)c(=O)cc1C	–	–	–	–	inactive	inactive	inactive	inactive	inactive	inactive	–	–	–	–	–
–	–	–	–	–	COC(=O)CCC(=O)CNC(=O)CCCCn1cc(O)c(=O)cc1C	–	–	–	–	inactive	inactive	inactive	inactive	inactive	inactive	–	–	–	–	–
Metabolite_Detected	Metabolite_Detected	Metabolite_Detected	Metabolite_Detected	Metabolite_Detected	CCOCCCn1c(C)cc(=O)c(O)c1COC(=O)CCC(=O)CN.Cl	52.2 µM	43.9 µM	64.7 µM	inactive	–	–	–	–	–	–	–	–	–	inactive	inactive
–	–	–	–	–	COC(=O)CCC(=O)CNC(=O)CCn1cc(O)c(=O)cc1C	–	–	–	–	inactive	inactive	inactive	inactive	inactive	inactive	–	–	–	–	–
Metabolite_Detected	Metabolite_Detected	Metabolite_Detected	Metabolite_Detected	Metabolite_Detected	COCCCn1c(C)cc(=O)c(O)c1COC(=O)CCC(=O)CN.Cl	50.6 µM	65.7 µM	57.2 µM	inactive	–	–	–	–	–	–	–	–	–	inactive	inactive
Metabolite_Detected	Metabolite_Detected	Metabolite_Detected	Metabolite_Detected	Metabolite_Detected	Cc1cc(=O)c(O)c(COC(=O)CCC(=O)CN)n1CCc1ccccc1.Cl	47.3 µM	30 µM	67.7 µM	inactive	–	–	–	–	–	–	–	–	–	inactive	inactive
–	–	–	–	–	COC(=O)CCC(=O)CNC(=O)Cn1cc(O)c(=O)cc1CO	–	–	–	–	inactive	inactive	inactive	inactive	inactive	inactive	–	–	–	–	–
–	–	–	–	–	COC(=O)CCC(=O)CNC(=O)[C@H](Cc1ccccc1)NC(=O)CCCCCn1cc(O)c(=O)cc1C	–	–	–	–	inactive	inactive	inactive	inactive	inactive	inactive	–	–	–	–	–
–	–	–	–	–	COC(=O)CCC(=O)CNC(=O)Cn1cc(O)c(=O)cc1C	–	–	–	–	inactive	inactive	inactive	inactive	inactive	inactive	–	–	–	–	–
